Experimental findings from ChEMBL document CHEMBL4184093, “Effects of newly synthetized isoquinoline derivatives on rat uterine contractility and ROCK II activity” (Bioorg Med Chem Lett, 2018) are described below.

Test [1] deals with Uterus. The test can be described thus: Inhibition of oxytocin-induced uterus contraction in non-pregnant Sprague-Dawley rat measured for 300 secs. Type of test: functional, tissue-based.
Test [2] addresses Rho-associated protein kinase 2 (Homo sapiens) (UniProt O75116). The test can be described thus: Inhibition of ROCK2 (unknown origin) at 200 uM using MYPT1 as substrate after 30 mins by immunoassay.
Test [3] relates to Uterus. The test can be described thus: Inhibition of oxytocin-induced uterus contraction in 20 days pregnant Sprague-Dawley rat at 10^-10 to 10^-5 M measured for 300 secs. The format is functional, tissue-based.
Test [4] deals with Uterus. The test can be described thus: Inhibition of oxytocin-induced uterus contraction in Sprague-Dawley rat during parturition period at 10^-10 to 10^-5 M measured for 300 secs. The format is functional, tissue-based.

Structures are written as SMILES. Calls of active or inactive are those of the source. The rule behind the calls is not given here.

Sequence of Rho-associated protein kinase 2 (Homo sapiens) (O75116 whole entry, looked up): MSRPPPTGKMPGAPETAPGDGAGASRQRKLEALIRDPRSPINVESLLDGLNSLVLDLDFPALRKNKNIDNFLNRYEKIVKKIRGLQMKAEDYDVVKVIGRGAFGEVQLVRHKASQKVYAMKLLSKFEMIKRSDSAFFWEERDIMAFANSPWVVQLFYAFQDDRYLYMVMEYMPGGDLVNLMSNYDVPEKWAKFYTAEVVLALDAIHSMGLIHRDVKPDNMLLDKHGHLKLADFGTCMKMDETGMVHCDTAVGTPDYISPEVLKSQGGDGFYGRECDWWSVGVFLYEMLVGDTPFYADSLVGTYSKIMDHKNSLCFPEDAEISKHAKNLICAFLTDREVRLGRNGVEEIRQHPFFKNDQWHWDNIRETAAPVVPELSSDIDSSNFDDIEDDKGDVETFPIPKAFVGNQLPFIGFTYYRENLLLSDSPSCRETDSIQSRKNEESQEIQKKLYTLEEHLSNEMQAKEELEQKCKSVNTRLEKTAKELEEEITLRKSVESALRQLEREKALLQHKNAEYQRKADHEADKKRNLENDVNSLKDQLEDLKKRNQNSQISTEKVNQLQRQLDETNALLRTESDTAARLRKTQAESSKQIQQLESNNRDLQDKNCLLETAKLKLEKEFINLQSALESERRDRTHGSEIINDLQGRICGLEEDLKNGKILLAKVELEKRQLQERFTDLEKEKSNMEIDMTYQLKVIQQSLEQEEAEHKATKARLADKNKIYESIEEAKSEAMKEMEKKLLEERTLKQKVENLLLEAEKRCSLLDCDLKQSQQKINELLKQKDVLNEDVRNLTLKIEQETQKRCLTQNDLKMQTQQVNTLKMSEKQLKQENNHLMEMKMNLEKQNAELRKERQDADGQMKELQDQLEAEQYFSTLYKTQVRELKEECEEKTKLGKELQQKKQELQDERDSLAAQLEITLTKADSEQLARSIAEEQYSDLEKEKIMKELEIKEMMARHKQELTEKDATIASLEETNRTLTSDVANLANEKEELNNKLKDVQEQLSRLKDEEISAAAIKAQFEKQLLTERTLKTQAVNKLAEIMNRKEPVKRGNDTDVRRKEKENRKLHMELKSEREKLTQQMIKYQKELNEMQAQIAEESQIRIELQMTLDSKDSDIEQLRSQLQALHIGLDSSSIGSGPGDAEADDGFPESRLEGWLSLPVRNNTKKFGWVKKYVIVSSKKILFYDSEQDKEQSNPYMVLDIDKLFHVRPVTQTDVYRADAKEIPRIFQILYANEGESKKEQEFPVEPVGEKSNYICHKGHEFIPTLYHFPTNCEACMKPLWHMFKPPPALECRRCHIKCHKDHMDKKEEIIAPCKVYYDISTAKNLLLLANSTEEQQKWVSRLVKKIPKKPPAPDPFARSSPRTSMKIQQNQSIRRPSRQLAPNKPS

In the test with Uterus [1], `COc1cc2c(cc1OC)C(C(CO)COC(=O)c1ccccc1)N(CCC#N)CC2` (stereo not drawn) came in with a maximum response (Emax) of 53.3% and an IC50 of 278 nM.
As for `CCOc1cc2c(cc1OCC)CN(C1CCCCC1O)CC2` (stereo not drawn), the “ROCK2 inhibition activity call (active/not active)” value in test [2] is “inactive”. In the test with Uterus [1], this compound had a maximum response (Emax) of 48% and a 50% inhibitory concentration (IC50) of 37.1 nM.
In the case of `COc1cc2c(cc1OC)C1CCO/C(=N\Cc3ccccc3)N1CC2` (stereo not drawn), in the test with Uterus [1], the maximal response (Emax) was determined as 55.1% and the IC50 stood at 522 nM.
Consider `COc1cc2c(cc1OC)C(C)N(C1CCCCC1O)CC2` (stereo not drawn), for which the “ROCK2 inhibition activity call (active/not active)” value in test [2] was “inactive”. Moreover, in the test on Uterus [1], the Emax is 45.6% and the 50% inhibitory concentration (IC50) stood at 90.2 nM.
In the test on Uterus [1], `COc1ccc(CCNC(=O)C(C)(C)C)cc1OC` showed a maximal response (Emax) of 52.8% and an IC50 of 191 nM.
In the test on Uterus [1], `COc1cc2c(cc1OC)C1C(Cc3ccccc3)CN1CC2` (stereo not drawn) displayed an Emax of 57.2% and an IC50 of 788 nM.
The corresponding values for `COc1cc2c(cc1OC)C(C(CO)COC(=O)c1ccccc1)N(C(=S)Nc1ccccc1)CC2` (stereo not drawn) are 83.5% and 1190 nM.
The matching figures for `COc1cc2c(cc1OC)C1C(COC(=O)Nc3ccccc3)CN1CC2` (stereo not drawn): 54.5% and 495 nM.
Turning to `CCOc1ccc(CCN(CCO)C2CCCCC2O)cc1OCC` (stereo not drawn), in test [2], the “ROCK2 inhibition activity call (active/not active)” value was “Active”. In addition, the inhibition entry in the test on Uterus [3] is “Active”. Also, in the test with Uterus [4], the inhibition result is “Active”. Also, in the test on Uterus [1], the maximal effect (Emax) is 46.3% and it took 41.8 nM to reach half-maximal inhibition (IC50).
In the test with Uterus [1], `COc1cc2c(cc1OC)C(CC#N)N(C(=O)Nc1cccc(C(F)(F)F)c1)CC2` (stereo not drawn) had an Emax of 72.2% and a concentration for half-maximal inhibition (IC50) of 1250 nM.
`COc1cc2c(cc1OC)C(C(CO)CO)N(C(=O)c1ccc(C(F)(F)F)cc1)CC2` (stereo not drawn): in the test on Uterus [1], the Emax amounted to 66.4% and the IC50 is 263 nM.
In the test on Uterus [1], `COc1cc2c(cc1OC)C1(C)N(CC2)C(c2ccccc2)=NN1c1ccc(Cl)cc1` (stereo not drawn) returned a maximum response (Emax) of 53.2% and an IC50 of 258 nM.
The matching figures for `C[C@@H](N)[C@H]1CC[C@H](C(=O)Nc2ccncc2)CC1` [Y-27632]: 82.3% and 505 nM.
The corresponding values for `COc1cc2c(cc1OC)C(c1ccccc1)N(C1CCCC1O)CC2` (stereo not drawn) are 58.8% and 610 nM.
The corresponding values for `COc1cc2c(cc1OC)C(C(CO)Cc1ccccc1)NCC2` (stereo not drawn) are 76.6% and 723 nM.
Take `COc1cc2c(cc1OC)C1C(C)CN1CC2` (stereo not drawn): the “ROCK2 inhibition activity call (active/not active)” value in test [2] is “inactive”. Moreover, in the test on Uterus [1], the Emax worked out at 43.7% and half-maximal inhibition (IC50) required 8.24 nM.
The matching figures for `COc1ccc(CC[N+](C)(CCO)C2CCCCC2)cc1OC` (stereo not drawn): “inactive”, 49.6% and 18.9 nM.
Regarding `COc1ccc(CCNC2CCCCC2O)cc1OC` (stereo not drawn), in test [2], the “ROCK2 inhibition activity call (active/not active)” value is “inactive”. Besides, in the test on Uterus [1], the maximal effect (Emax) was found to be 51.7% and the IC50 came to 98.1 nM.
In the test on Uterus [1], `CCOc1cc2c(cc1OCC)C1C(CO)CS/C(=N\c3ccc(C)cc3)N1CC2` (stereo not drawn) gave a maximal effect (Emax) of 82.5% and a half-maximal inhibitory concentration (IC50) of 1170 nM.
For `COc1cc2c(cc1OC)C(C(CO)CO)N(C(=S)Nc1ccccc1)CC2` (stereo not drawn), the “ROCK2 inhibition activity call (active/not active)” value in test [2] was “Active”. The inhibition result with Uterus [3] was “Active”. Besides, the inhibition result in the test with Uterus [4] was “Active”. In the test with Uterus [1], this compound had an Emax of 52.5% and an IC50 of 158 nM.
For `COc1cc2c(cc1OC)C1C(CO)COC(=N)N1CC2` (stereo not drawn), in test [2], the “ROCK2 inhibition activity call (active/not active)” value is “inactive”. In the test on Uterus [1], this compound returned an Emax of 50.4% and an IC50 of 13.3 nM.
Regarding `CCOc1ccc(/C=C2\NCCc3cc(OCC)c(OCC)cc32)cc1OCC` [DROTAVERINE], in the test on Uterus [1], the Emax turned out to be 88.8% and the IC50 was found to be 1940 nM.
As for `O=S(=O)(c1cccc2cnccc12)N1CCCNCC1` [FASUDIL], the inhibition result in the test on Uterus [3] and with Uterus [4] was “Active” each time. The compound also returned an Emax with Uterus [1] of 87.4%. The compound also registered an IC50 with Uterus [1] of 781 nM.
As to `COc1cc2c(cc1OC)C(C(CO)CO)N(C1CCCC1)CC2` (stereo not drawn), the “ROCK2 inhibition activity call (active/not active)” value in test [2] is “inactive”. In the test on Uterus [1], the maximal response (Emax) worked out at 54.5% and the 50% inhibitory concentration (IC50) worked out at 84.5 nM.
In the test on Uterus [1], `COc1ccc(Cc2nccc3cc(OC)c(OC)cc23)cc1OC` [PAPAVERINE] registered an Emax of 98.5% and a half-maximal inhibitory concentration (IC50) of 420 nM.
As to `C#CC[N+]12CCc3cc(OC)c(OC)cc3C1C(CO)C2` (stereo not drawn), in test [2], the “ROCK2 inhibition activity call (active/not active)” value was “inactive”. In the test with Uterus [1], this compound came in with an Emax of 54.5% and a concentration for half-maximal inhibition (IC50) of 32.2 nM.
The matching figures for `COc1cc2c(cc1OC)C(C1CCc3nc(N4CCOCC4)[nH]c(=O)c3C1)=NCC2` (stereo not drawn): “inactive”, 47.3% and 24.2 nM.
In the test on Uterus [1], `CCOc1cc2c(cc1OCC)C(CCO)N(C(=S)Nc1cccc(C(F)(F)F)c1)CC2` (stereo not drawn) yielded a maximal response (Emax) of 84.7% and an IC50 of 1080 nM.
